Reference: paper PMC8072159, “5-Bis-(2,6-difluoro-benzylidene) Cyclopentanone Acts as a Selective 11β-Hydroxysteroid Dehydrogenase one Inhibitor to Treat Diet-Induced Nonalcoholic Fatty Liver Disease in Mice” (Frontiers in Pharmacology, 2021)
“Also recorded” adds a separate entry of the source.

System: HFD-induced NAFLD mice
Experiment: HFD-induced NAFLD mouse model, WZS08 by gavage for 100 days
Type: in vivo
Conditions: for Body weight / Dorsal adipose weight / Epididymal adipose weight / Mesenteric adipose weight / Thymic adipose weight / Total hepatic weight: mean ± SEM
Method: The KM mice were randomly divided into six groups, including a regular chow (Group C), HFD (Group M) as a model control group, HFD supplemented with various doses of WZS08, 1 (Group M + W1), 2 (Group M + W2), and 4 (Group + W4) mg/kg, 20 mice per group. Mice were housed five animals per cage. Mice were maintained at a constant temperature (25 ± 3°C) for a 12-h light-dark cycle with free access to food and water. After a week of diet adaptation, the mice were fed with WZS08 dissolved in 1% sodium carboxymethyl cellulose (CMC-Na) or 1% CMC-Na for 100 days alone. Each mouse was gavaged daily with 0.5 ml vehicle (1% CMC-Na) or drug in 1%CMC-Na. By the end of the treatment, the mice were killed by CO2, and the weights of body, liver, epididymal fat, mesenteric fat, and dorsal fat were measured. […]
Quantitative Real-Time Polymerase Chain Reaction
Total RNA was isolated from mouse liver using Trizol kit according to the manufacturer’s instruction. To reduce genomic DNA contamination, total RNAs were treated with ribonuclease-free deoxyribonuclease I (Thermo Fisher Scientific, Waltham, MA, United States) for 1 h at 37°C. 1 μg RNA was used to synthesize the first strand cDNA by reverse transcription kit. qPCR was carried out using SYBR GREEN as an indicator using Bio-Rad real time PCR system. The standard curve method was adopted as previously described ([Lv et al., 2019]). The Ct values were recorded after a series of diluted standards of mouse liver cDNAs, and the linear equation of Ct values vs. logarithm [dilution of standards] was generated, and the concentration of the target mRNA was calculated according to their Ct value. The result was normalized to Gapdh (encoding GAPDH) and Rps16 as the internal controls. The mRNA levels of Acs2 (encoding acetyl-CoA synthetase2), Hsd11b1 (encoding 11β–HSD1), Ldlr (encoding LDLR), Plin2 (encoding PLIN2), and Plin3 (encoding PLIN3) were evaluated. There were no changes in Gapdh and Rps16 mRNA levels between groups and the test mRNA levels were adjusted to Gapdh. Primer information is listed in Supplementary Table S1.
Measurement of Serum Insulin and Corticosterone Levels and Blood Lipid Levels
On the last day of the experiment, the mice were fasted for 6 h (with free access to drinking water), and then blood and tissues were sampled. Blood samples were collected. The blood sample was centrifuged at 5000 rpm for 10 min to collect the serum, and the serum was frozen at -40°C until use. According to standard clinical protocols, the levels of serum glucose, low-density lipoprotein (LDL), high-density lipoprotein (HDL), total cholesterol, and triglyceride (TG) were measured using Hitachi 7600 biochemical analyzer (Hitachi, Japan). In addition, serum insulin and corticosterone levels were evaluated using the ultrasensitive mouse insulin ELISA kit (CrystalChem, IL, USA) and the commercially available corticosterone ELISA kit (Abnova, Taiwan, China) according to the manufacturers’ instructions.
Protein Expression Analysis
Total hepatic protein extract was obtained as previously described ([Lazaro et al., 2013]). The protein was separated by SDS–PAGE and transferred to a 0.2 μm PVDF membrane. The primary antibodies used were: 11β-HSD1 (rabbit polyclonal antibody, Abcam, catalog # ab39364; being blocked with 11β-HSD1 peptide, #ab101097, San Francisco, CA), ACS2 (Abcam, catalog # ab229958, San Francisco, CA, United States), and β-actin (ACTB, Cell signaling, Danvers, MA, United States). Goat anti-rabbit HRP was used as a secondary antibody. Finally, chemiluminescence emitted by the immunoreactive protein was detected by an ECL advance agent, and visualized with a MicroChemi Imaging system and qualified by a densitometry using AlphaEaseFC (ProteinSample, CA, United States). Relative protein levels were normalized by ACTB.
Before hematoxylin and eosin (HE) staining, the livers of KM mice were fixed in 10% formalin, dehydrated, and embedded in paraffin, as previously described ([Andres-Manzano et al., 2015]). […]

[1] = HFD mice, 4 mg/kg (M + W4), 100 days
[2] = HFD mice, 1, 2, and 4 mg/kg, vs Group M, qPCR
[3] = HFD plus 1 mg/kg WZS08 (M + W1), 100 days
[4] = HFD plus 2 mg/kg WZS08 (M + W2), 100 days
[5] = HFD plus 4 mg/kg WZS08 (M + W4), 100 days

With O=C1/C(=C/c2c(F)cccc2F)CC/C1=C\c1c(F)cccc1F [WZS08, (2E,5E)-2,5-bis(2,6-difluorobenzylidene) Cyclopentanone] as the molecule, how does the Fabp4 expression (HFD mice, 1 mg/kg, 100 days) read?
The Fabp4 expression was “up-regulated”.

What about the hepatic fat ratio (HFD mice, 1 mg/kg, 100 days) of the same molecule?
The hepatic fat ratio was “significantly reduced”.

What about the serum cholesterol (HFD mice, 1 mg/kg, 100 days) of the same molecule?
The serum cholesterol was “significantly reduced”.

What about the serum low-density lipoprotein (HFD mice, 1 mg/kg, 100 days) of the same molecule?
Its serum low-density lipoprotein is “significantly reduced”.

What about the serum triglycerides (HFD mice, 1 mg/kg, 100 days) of the same molecule?
Its serum triglycerides is “significantly reduced”.

What about the “serum HDL level” value [1] of the same molecule?
Its value is “greatly reduced”.

And the “serum LDL level” value [1]?
The value was “greatly reduced”.

What about the serum cholesterol level [1] of the same molecule?
The serum cholesterol level was “greatly reduced”.

And the serum triglyceride level [1]?
The serum triglyceride level was “greatly reduced”.

What about the insulin index (HFD mice, 4 mg/kg, 100 days, vs HFD group) of the same molecule?
The insulin index was “significantly lowered”.

And the serum insulin levels (HFD mice, 4 mg/kg, 100 days, vs HFD group, 4 mg/kg)?
The serum insulin levels was “significantly lowered; also recorded: completely reduced it to control level”.

What about the “liver lipid content (HE staining)” value (HFD mice, 1, 2, 4 mg/kg) of the same molecule?
Its value is “remarkably reduced”.

What about the “insulin resistance (HOMA-IR)” value (HFD mice, 1, 2, 4 mg/kg, 100 days) of the same molecule?
Its value is “dose-dependently reduced”.

What about the body weight changes (HFD mice, 1, 2, 4 mg/kg, 100 days, vs HFD control) of the same molecule?
The body weight changes was “dose-dependently reduced”.

What about the “Acs2 expression in liver” value [2] of the same molecule?
Its value is “up-regulated”.

What about the “Plin2 expression in liver” value [2] of the same molecule?
Its value is “down-regulated”.

And the “morphology of the non-alcoholic fatty liver” value (HFD mice, 100 days)?
The value was “significantly improved”.

And the liver fat content (HFD mice, doses of 2 and 4 mg/kg)?
Its liver fat content is “significantly decreased”.

And the Plin2 expression (HFD mice, liver, 1 mg/kg, 100 days)?
Its Plin2 expression is “down-regulated”.

And the Body weight [3]?
Its Body weight is 52.46 ± 1.28 g.

What about the Dorsal adipose weight [3] of the same molecule?
The Dorsal adipose weight was 0.68 ± 0.092 g.

What about the Epididymal adipose weight [3] of the same molecule?
The Epididymal adipose weight was 2.05 ± 0.230 g.

What about the Mesenteric adipose weight [3] of the same molecule?
The Mesenteric adipose weight was 0.64 ± 0.074 g.

What about the Thymic adipose weight [3] of the same molecule?
The Thymic adipose weight was 0.08 ± 0.01 g.

What about the Total hepatic weight [3] of the same molecule?
Its Total hepatic weight is 2.79 ± 0.12 g.

And the Body weight [4]?
The Body weight was 50.25 ± 1.01 g.

And the Dorsal adipose weight [4]?
Its Dorsal adipose weight is 0.54 ± 0.049 g.

And the Epididymal adipose weight [4]?
The Epididymal adipose weight was 1.52 ± 0.138 g.

And the Mesenteric adipose weight [4]?
Its Mesenteric adipose weight is 0.55 ± 0.043 g.

And the Thymic adipose weight [4]?
Its Thymic adipose weight is 0.06 ± 0.00 g.

And the Total hepatic weight [4]?
Its Total hepatic weight is 2.48 ± 0.06 g.

What about the Body weight [5] of the same molecule?
The Body weight was 49.00 ± 1.22 g.

What about the Dorsal adipose weight [5] of the same molecule?
The Dorsal adipose weight was 0.55 ± 0.070 g.

And the Epididymal adipose weight [5]?
Its Epididymal adipose weight is 1.54 ± 0.20 g.

What about the Mesenteric adipose weight [5] of the same molecule?
The Mesenteric adipose weight was 0.54 ± 0.048 g.

And the Thymic adipose weight [5]?
The Thymic adipose weight was 0.077 ± 0.00 g.

And the Total hepatic weight [5]?
Its Total hepatic weight is 2.29 ± 0.06 g.

What about the blood glucose (HFD-treated mice, oral administration) of the same molecule?
The blood glucose was “did not show significant changes”.
